System: mitochondrial Complex I
Assay: High resolution respirometry of cardiac mitochondria isolated from spermidine supplemented aged mice (Complex I activity)
Format: in vivo, C57BL/6 mice
Conditions: for activity of mitochondrial Complex I (respiratory competence of cardiac mitochondria through respiratory chain complex I, OXPHOS stage): isolated cardiac mitochondria of 24 month old mice after 6 months of spermidine supplementation (24M+S) vs aged control (24M), complex I supplying substrates, 37° C., N-5/5
Method: Mitochondria isolated from cardyomyocytes of spermidine or sham treated 24 month old and 4 month old (young reference) C57B/63 wildtype mice were used for measurement of mitochondrial respiratory activity.
Wild type C57BL/6 mice were purchased from Janvier Labs, France (C57BL6/J:Rj males). Supplementation of spermidine was conducted late in life (starting at age of 18 months). After 6 months of treatment, isolation of cardiac mitochondria and high resolution respirometry was performed, using an isolation buffer containing 0.2% BSA and 5 mg/ml bacterial protease (Sigma-Aldrich, P8038). Hearts were quickly excised immediately after final blood collection under isoflurane anaesthesia and processed.
Optical density at 600 nm (0D600) of the final mitochondrial suspension (isolation buffer including BSA, but excluding protease) was determined by serial dilutions in a TECAN GeniusPro plate reader and served as an estimate of mitochondrial mass used for normalization. Oxygen consumption was assayed at 37° C. with an Oxygraph 2 k high resolution respirometer (Oroboros Instruments, Austria) according to the manufacturer's recommendations. OD600 equivalents of isolated myocardial mitochondria corresponding to 10-20 ug mitochondrial protein were diluted in 2 ml equilibrated measurement medium (100 mM sucrose, 20 mM K+−TES (pH=7.2), 50 mM KCl, 2 mM MgCl2, 1 mM EDTA, 4 mM KH2PO4, 3 mM malate and 0.1% (v/v) BSA) within a closed and calibrated system with constant stirring. […]
In FIG. 1A representative oxygraph recordings and (B) quantification of mitochondrial respiration (only OXPHOS stage shown) from isolated cardiac mitochondria incubated with complex I supplying substrates […] and pyruvate (Gly/Pyr) are shown. ROX, Residual respiration (State 1) in the absence of reduced substrate and ADP; LEAK, Respiration compensating for proton leak in the absence of ADP but presence of reduced substrate; OXPHOS, ADP stimulated respiration of coupled mitochondria (quantification shown in FIG. 1B); OXPHOS+CytC, Oxphos after addition of cytochrome C. […]

NCCCCNCCCN [Spermidine, N-(3-Aminopropyl)-1,4-diaminobutane]
age-induced decline in mitochondrial respiratory function (aged spermidine supplemented mice vs aged control and young reference mice, cardiac mitochondria): reversed | activity of mitochondrial Complex I (respiratory competence of cardiac mitochondria through respiratory chain complex I, OXPHOS stage): increases the activity of mitochondrial Complex I | activity of mitochondrial Complex I (respiratory competence of cardiac mitochondria through respiratory chain complex I, OXPHOS stage) (listed as spermidine): increased
